Experimental findings from US4444691A, “11-Cyano-prostaglandins of the F-series” (American Cyanamid Company, priority 1982, dated 1984) are described below.

The structures appear in SMILES notation. Where two headings read alike, the source gives them in different places.

Series [1] has as its system bronchospasms elicited by 5-hydroxytryptamine. The experiment in a line: Bronchodilator activity (Konzett assay), 5-hydroxytryptamine bronchospasm. Format: in vivo, guinea pigs. The following applies: Cavia porcellus; spasmogenic agent 5-hydroxytryptamine; three logarithmic cumulative intravenous doses. Here is the method:
(§1) Bronchodilator activity was determined in guinea pigs against bronchospasms elicited by intravenous injections of 5-hydroxytryptamine, histamine or acetylchlorine by the Konzett procedure. (See J. Lulling, P. Licvens, F. El Sayed and J. Prignot, Arzneinittel-Forschung, 18, 995 (1968).]
(§2) In the Table which follows bronchodilator activity for representative compounds of this invention against one or more of the three spasmogenic agents is expressed as an ED50 determined from the results obtained with three logarithmic cumulative intravenous doses.

Series [2] has as its system bronchospasms elicited by histamine. The series can be described thus: Bronchodilator activity (Konzett assay), histamine bronchospasm. As to conditions: Cavia porcellus, iv, spasmogenic agent histamine; three logarithmic cumulative intravenous doses. Format: in vivo, guinea pigs. Here is the method: as §1, §2
Series [3] has as its system bronchospasms elicited by acetylcholine. The series can be described thus: Bronchodilator activity (Konzett assay), acetylcholine bronchospasm. Format: in vivo, guinea pigs. The following applies: Cavia porcellus; spasmogenic agent acetylcholine; three logarithmic cumulative intravenous doses. Here is the method: as §1, §2
Series [4] deals with ulcerogenic effects induced by indomethacin (stomach ulcers). The class given is in vivo, rat. The following applies: indomethacin 20 mg/kg s.c. The procedure:
It is further to be noted that although prostaglandins in general are not effective when administered by oral route, the compounds of this invention are effective orally. The assay to determine the protective effect of these compounds is carried out in the following manner.
Rats were starved for 48 hours (water was given ad libitum). Indomethacin (20 mg./kg. of body weight) was administered by the subcutaneous route and one-half the dose of the test compound was administered by gavage at the same time. After three hours, the second half of the test compound was administered, also by gavage. Five hours after the administration of indomethacin the animals were decapitated and the stomachs removed. The stomachs were washed with distilled water, blotted on gauze, cut along the larger curvature, and the contents rinsed with distilled water. The stomachs were spread out, pinned on a cork and visualized under magnifying glass for ulcers. The criteria for scoring of ulcers was as previously reported. [Abdel-Galil et al. Brit. J. Pharmac. Chemotherapy 33:1-14 (1968)]. […]
1 Petechial hemorrhage of pin point ulcers
3 Many ulcers, a few large
4 Many ulcers, mainly large
Control animals treated with indomethacin but not test compound consistently give scores of about 2.5-3.5. Control animals treated with neither indomethacin not test compound give scores of about 0.5-0.8. Compounds diminishing the control ulcer score by 0.5 unit or more are considered to be active.

Another series concerns gastric acid secretion. The series can be described thus: Gastric acid secretion inhibition, modified Shay rat procedure. Format: in vivo, rats (male, CFE strain). The following applies: Rattus norvegicus, read-out: Percent inhibition of gastric acid secretion. An excerpt: The novel compounds of the present invention are effective inhibitors of gastric acid secretion and of ulcer development in experimental animals, and thus are potentially valuable as agents for the control of gastric secretion and of gastric erosion and as anti-ulcer agents. Gastric acid secretion inhibitory action is usually measured by the "Shay rat" procedure ^(1,2) with some modifications as follows.
(1) Shay et al., Gastroenterology, 5, 43 (1945).
The rats (male, CFE strain) were starved for 48 hours (water was given ad libitum) to permit evacuation of stomach contents. On the morning of the experiment, under ether anesthesia, the abdominal region was shaved and a midline incision (1-11/2" ) was made with a scapel. With the help of a closed curved hemostat the duodenum was picked up. Upon getting the duodenum into view, fingers were used to pull the stomach through the opening, the stomach was then gently manipulated with fingers to rid stomach of air and residual matter which were pushed through the pylorus. Two-5 inch sutures were drawn under the pyloric-duodenal puncture. A ligature at the juncture, was formed with one of the threads. The second ligature was also formed but not tightened.
The test compound or the vehicle, usually 1 ml./100 g. body weight, were injected into the duodenum as close as possible to the first ligature. After injection the second ligature was tightened below the injection site to minimize leakage. The stomach was placed back through the opening into the abdominal cavity, the area of incision was washed with saline and the incision was closed with autoclips. (Occasionally, instead of an intraduodenal injection, animals were dosed by the oral or subcutaneous route. In the latter case, dosing was done thirty to sixty minutes before the operation.)
The abdominal cavity was exposed by cutting with scissors and the esophagus close to the stomach was clamped off with a hemostat, the stomach was removed by cutting above the hemostat (the esophagus was cut) and between the two sutures. Extraneous tissue was removed, the stomach washed with saline and blotted on gauze. A slit was carefully made in the stomach which was held over a funnel and the contents were collected in a centrifuge tube. The stomach was further cut along the outside edge and turned inside out. Two ml. H2 O were used to wash the stomach contents into the respective centrifuge tube. The combined stomach contents and wash were then centrifuged out for 10 minutes in the International Size 2 Centrifuge (setting at 30). The supernatant was collected, volume measured and recorded, 2 drops of a phenylphthalein indicator (1% in 95% ethanol) were added and the solution was titrated with 0.02 N NaOH (or with 0.04 N NaOH when large volumes of stomach contents were encountered) to pH 8.4 (because of usual coloring of the stomach contents, phenolphthalein was only used to permit visual indication that the end point was near) and the amount of acid present was calculated.
Compounds inducing inhibition of gastric acid secretion of 20% or more were considered active. In a representative operation, and merely by way of illustration, the results obtained with this assay with typical compounds of the present invention are given in Table II below.

In series [5] the test system is basal gastric acid secretion. The experiment in a line: Inhibition of total acid output (basal gastric acid secretion) in the acute gastric fistula rat. As to conditions: Rattus norvegicus, intraduodenal. Format: in vivo, female Sprague-Dawley rats. Here is the method: Inhibition of basal gastric acid secretion can be determined by the following procedure.
Female Sprague-Dawley rats weighing 140-160 grams are fasted in individual cages for 18-24 hours. The rats are then lightly anesthetized with ether and their front teeth extracted to avoid destruction of the plastic cannula. A midline incision is then made and the stomach and duodenum exposed. A flanged polyvinyl tube is inserted into the fundic portion of the stomach and secured with a purse string suture line using 4-O Mersilene. The rat is then dosed by injection of the compound into the duodenum (1.0 ml. per 100 gram body weight). After dosing, the abdominal wall and skin are closed using metal wound clips. The rat is replaced in a cage containing a longitudinal slit to allow the polyvinyl tube to hang freely. An 8 ml. plastic collecting tube is attached to the flanged cannula and hangs freely below the cage. The first 30 minute sample is discarded designating this time as zero. The collecting tube is attached again and samples removed at the end of 60 and 120 minutes. These samples are referred to as "A" and "B" in the table. The hourly samples are then transferred to a 15 ml. centrifuge and centrifuged for 5-10 minutes. Total and sediment volume are then recorded with the supernatent volume being used as volume of secretion. A 1 ml. or less aliquot is then removed and placed in a 50 ml. beaker containing 10 ml. of distilled water. This sample is then titrated using 0.01 N NaPH to pH 7.0 using a Beckman zeromatic pH meter. Volume, titratable acidity (mew/L) and total acid output (ueq/hour) are recorded. Percent inhibition is determined by comparison with the appropriate control. Groups of three rats were used for preliminary testing, and groups of six rats were used for dose-response evaluations. All compounds are administered in a vehicle consisting of 0.5% methocel, 0.4% tween 80, and saline at a constant volume of 1 ml./100 gram rat. Samples are dispersed by sonification. Percent inhibition is calculated on basis of concurrent vehicle control.
In Table III which follows is given the effect on total acid output after 60 minutes and 120 minutes of intraduodenal dose, of representative compounds of this invention.

Another series deals with ligated intestine. On the set-up: species or system female Sprague-Dawley rats. As to conditions: rat, in vivo. Here is the method:
It is therefore unexpected and novel that in general, the compounds of this invention are not diarrheagenic at dose levels at which they are effective gastric acid secretion inhibitors. One measure of diarrheagenic potential is the ileal ligated rat assay, a description of which follows directly.
Female Sprague-Dawley rats (Charles River Laboratories) weighing less than 100 grams are fasted in individual cages for at least 18 hours. They are then anesthetized with ether and a midline incision made. The duodenum is exposed and the test drug or control injected intraduodenally. The ilcocecal junction is then exposed and the terminal ileum is ligated using 3-0 silk thread just proximal to the junction. The incision is then closed using wound clips. Rats are placed back in individual cages without food or water for four hours. After this time the rats were sacrificed, the stomach and small intestine carefully removed, and cleaned of adherent mesentery. The removed portion of gut is then weighed to the nearest 0.1 gram. Compounds inducing diarrhea such as prostaglandins, cholera toxin, etc. produce an increase in weight of the ligated intestine. This increase from control is noted in Table IV, as change in weight in grams after standardizing weights of gut to grams/100 gram rat. An increase in intestinal weight of about 1.0 g. is considered indicative of diarrheagenic potential.
When measured by this assay at effective gastric acid secretion inhibiting doses, as determined by the acute rat fistula assay representative novel compounds of Table IV are non-diarrheagenic.

The mark [6] stands for this setting: 1 h, 60 min, read-out: % Inhibition of total acid output, after 60 minutes (A).
Where [7] appears, read: 2 h, 120 min, read-out: % Inhibition of total acid output, after 120 minutes (B).
Where [8] appears, read: total oral dose 12.5 mg/kg, score 0-4, controls 2.5-3.0.

One may read the ED50 as the dose that gives a 50% effect, or the effect in half of the subjects. Higher therefore signals weaker potency. With `CCCCC[C@H](O)/C=C/[C@H]1[C@H](CC(=O)O)CC(=O)[C@@H]1C/C=C\CCCC(=O)O` [11-deoxy-11α-carboxymethylprostaglandin E2], the ED50 in series [1] was 5.5 mg/kg; in series [2], 3.4 mg/kg; in series [3], 4.6 mg/kg.

Turning to `CCCCC[C@H](O)/C=C/[C@H]1[C@H](C[N+](=O)[O-])CC(=O)[C@@H]1C/C=C\CCCC(=O)O` [11-deoxy-11α-nitromethyl prostaglandin E2], in series [4] (total oral dose 100 mg/kg, score 0-4, controls 3.2), the “Ulcer score, treated animals” value is given as 1.0. Moreover, in the series on gastric acid secretion (intraduodenal, 100 mg/kg), the inhibition in vivo at 100 mg/kg was 74%. For the same compound, the ED50 in series [2] was found to be 1.4 mg/kg; in series [3], 1.7 mg/kg.

`CCCCC[C@H](O)/C=C/[C@H]1[C@@H](CO)CC(=O)[C@@H]1C/C=C\CCCC(=O)O` [11-deoxy-11β-hydroxymethyl-prostaglandin E2]: in the series with gastric acid secretion (sc, subcutaneous, 8 mg/kg), the inhibition in vivo at 8 mg/kg stood at 44%. Moreover, the ED50 in series [1] is 0.3 mg/kg; in series [2], 0.065 mg/kg; in series [3], 0.25 mg/kg.

As for `CCCCC[C@H](O)/C=C/[C@H]1C(SC(C)=O)CC(=O)[C@@H]1C/C=C\CCCC(=O)O` (stereo partly drawn) [l-11-acetylthio-11-deoxyprostaglandin-E2, 11-deoxy-11α/β-acetylthioprostaglandin E2], the inhibition in vivo at 10 mg/kg in series [5] (setting [6]) amounted to 66%; in series [5] (setting [7]), 68%. The “Increase in weight of intestine” value with ligated intestine (10 mg/kg) is -0.02 g; in the series with ligated intestine (20 mg/kg) it was -0.1 g.

For the compound `CCCCC[C@H](O)/C=C/[C@H]1[C@H](CO)C[C@@H](O)[C@@H]1C/C=C\CCCC(=O)O` [l-11-dexoy-11α-hydroxymethylprostaglandin-F2 β], the inhibition in vivo at 5 mg/kg in series [5] (setting [6]) and in series [5] (setting [7]) was 49% throughout. For the same compound, the “Increase in weight of intestine” value in the series with ligated intestine (10 mg/kg) is on record as “+0.6 g”.

As for `CCCCC[C@H](O)/C=C/[C@H]1[C@H](C#N)CC(=O)[C@@H]1C/C=C\CCCC(=O)O` [l-11α-cyano-11-deoxyprostaglandin-E2, l-11-deoxy-11α-cyanoprostaglandin-E2], the inhibition in vivo at 10 mg/kg came out at 49% in series [5] (setting [6]) and 18% in series [5] (setting [7]). Besides, the ED50 is 0.0003 mg/kg in series [1], 0.0014 mg/kg in series [2] and 0.0053 mg/kg in series [3].

As for `CCCCC[C@H](O)/C=C/[C@H]1[C@H](SCC)CC(=O)[C@@H]1C/C=C\CCCC(=O)O` [l-11α-ethylthio-11-deoxyprostaglandin-E2, 11-deoxy-11α-ethylthioprostaglandin E2], the “Increase in weight of intestine” value with ligated intestine (10 mg/kg) is -0.2 g.

With `CCCCC[C@H](O)/C=C/[C@H]1[C@H](C)CC(=O)[C@@H]1C/C=C\CCCC(=O)O` [l-11α-methyl-11-deoxyprostaglandin-E2, 11-deoxy-11α-methyl-prostaglandin E2], the “Ulcer score, treated animals” value in series [4] (total oral dose 6.25 mg/kg, score 0 (normal) to 4, controls 3.0) is 2.5; in series [4] (setting [8]), 2.0; in series [4] (total oral dose 25 mg/kg, score 0-4, controls 2.7-3.9), 1.7. For the same compound, the inhibition in vivo at 50 mg/kg in the series with gastric acid secretion (intraduodenal) is 63%. Moreover, the ED50 in series [1] is 0.0022 mg/kg; in series [2] it was 0.05 mg/kg; in series [3], 1.19 mg/kg.

Take `CCCCC[C@H](O)/C=C/[C@H]1C(C#N)CC(=O)[C@@H]1C/C=C\CCCC(=O)O` (stereo partly drawn) [l-11α/β-cyano-11-deoxyprostaglandin-E2, 11α/β-cyano-11-deoxy-prostaglandin E2]: the “Ulcer score, treated animals” value in series [4] (setting [8]) amounted to 1.2. The inhibition in vivo at 25 mg/kg with gastric acid secretion (intraduodenal, 25 mg/kg) turned out to be 31%. Further, the inhibition in vivo at 50 mg/kg with gastric acid secretion (intraduodenal) worked out at 79%. The values for the ED50 in series [1], in series [2] and in series [3] were 0.036 mg/kg, 0.0054 mg/kg and 0.091 mg/kg, respectively.
